Data from ChEMBL document CHEMBL4507258 (2021).

How the values were obtained:
[1] = biological target: G protein-coupled receptor kinase 3 (Homo sapiens) (UniProt P35626); settings: Compound concentration 1000.0 nM
[2] = biological target: ALK tyrosine kinase receptor (Homo sapiens) (UniProt Q9UM73); settings: Compound concentration 1000.0 nM
[3] = biological target: NUAK family SNF1-like kinase 2 (Homo sapiens) (UniProt Q9H093); settings: Compound concentration 1000.0 nM
[4] = biological target: Interleukin-1 receptor-associated kinase 3 (Homo sapiens) (UniProt Q9Y616); settings: Compound concentration 1000.0 nM
[5] = biological target: Serine/threonine-protein kinase D2 (Homo sapiens) (UniProt Q9BZL6); settings: Compound concentration 1000.0 nM
[6] = biological target: Serine/threonine-protein kinase pim-3 (Homo sapiens) (UniProt Q86V86); settings: Compound concentration 1000.0 nM
[7] = test system: Phosphatidylinositol 4,5-bisphosphate 3-kinase catalytic subunit alpha isoform (Homo sapiens), P42336 [E545K]; settings: Compound concentration 1000.0 nM
[8] = biological target: Mitogen-activated protein kinase 3 (Homo sapiens) (UniProt P27361); settings: Compound concentration 1000.0 nM
[9] = biological target: Vascular endothelial growth factor receptor 2 (Homo sapiens) (UniProt P35968); settings: Compound concentration 1000.0 nM
[10] = biological target: GABA-A receptor; anion channel (Rattus norvegicus) (UniProt O09028+P15431+P18506+P18508+P19969+P20236+P23574+P23576+P28471+P28473+P30191+P62813+P63079+P63138+Q91ZM7+Q9ES14); settings: Compound concentration 10.0 uM
[11] = biological target: MAP kinase-activated protein kinase 5 (Homo sapiens) (UniProt Q8IW41); settings: Compound concentration 1000.0 nM
[12] = biological target: Interleukin-1 receptor-associated kinase 1 (Homo sapiens) (UniProt P51617); settings: Compound concentration 1000.0 nM
[13] = test system: Receptor-type tyrosine-protein kinase FLT3 (Homo sapiens), P36888 [D835Y]; settings: Compound concentration 1000.0 nM
[14] = biological target: Mitogen-activated protein kinase 12 (Homo sapiens) (UniProt P53778); settings: Compound concentration 1000.0 nM
[15] = biological target: Serine/threonine-protein kinase Chk2 (Homo sapiens) (UniProt O96017); settings: Compound concentration 1000.0 nM
[16] = biological target: Tyrosine-protein kinase Lyn (Homo sapiens) (UniProt P07948); settings: Compound concentration 1000.0 nM
Tyrosine-protein kinase Lyn (Homo sapiens), sequence (P07948 2-512 limits assumed): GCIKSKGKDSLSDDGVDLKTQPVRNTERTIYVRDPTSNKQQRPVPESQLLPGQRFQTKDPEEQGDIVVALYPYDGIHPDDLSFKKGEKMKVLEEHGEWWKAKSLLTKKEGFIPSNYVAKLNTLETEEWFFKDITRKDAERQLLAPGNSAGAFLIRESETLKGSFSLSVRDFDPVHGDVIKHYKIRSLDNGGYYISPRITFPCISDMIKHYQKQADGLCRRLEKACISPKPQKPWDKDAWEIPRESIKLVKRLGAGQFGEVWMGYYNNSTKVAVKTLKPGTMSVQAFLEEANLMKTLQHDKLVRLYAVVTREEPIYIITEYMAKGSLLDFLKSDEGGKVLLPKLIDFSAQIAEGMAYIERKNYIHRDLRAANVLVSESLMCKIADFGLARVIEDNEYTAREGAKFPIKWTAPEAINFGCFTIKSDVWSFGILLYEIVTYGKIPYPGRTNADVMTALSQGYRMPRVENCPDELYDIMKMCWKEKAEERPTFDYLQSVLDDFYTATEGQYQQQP

[17] = biological target: Wee1-like protein kinase 2 (Homo sapiens) (UniProt P0C1S8); settings: Compound concentration 1000.0 nM
[18] = biological target: Tyrosine-protein kinase FRK (Homo sapiens) (UniProt P42685); settings: Compound concentration 1000.0 nM
[19] = test system: Tyrosine-protein kinase ABL1 (Homo sapiens), P00519 [F317I]; settings: Compound concentration 1000.0 nM
[20] = biological target: Homeodomain-interacting protein kinase 1 (Homo sapiens) (UniProt Q86Z02); settings: Compound concentration 1000.0 nM
Homeodomain-interacting protein kinase 1 (Homo sapiens), sequence (Q86Z02 whole entry, looked up): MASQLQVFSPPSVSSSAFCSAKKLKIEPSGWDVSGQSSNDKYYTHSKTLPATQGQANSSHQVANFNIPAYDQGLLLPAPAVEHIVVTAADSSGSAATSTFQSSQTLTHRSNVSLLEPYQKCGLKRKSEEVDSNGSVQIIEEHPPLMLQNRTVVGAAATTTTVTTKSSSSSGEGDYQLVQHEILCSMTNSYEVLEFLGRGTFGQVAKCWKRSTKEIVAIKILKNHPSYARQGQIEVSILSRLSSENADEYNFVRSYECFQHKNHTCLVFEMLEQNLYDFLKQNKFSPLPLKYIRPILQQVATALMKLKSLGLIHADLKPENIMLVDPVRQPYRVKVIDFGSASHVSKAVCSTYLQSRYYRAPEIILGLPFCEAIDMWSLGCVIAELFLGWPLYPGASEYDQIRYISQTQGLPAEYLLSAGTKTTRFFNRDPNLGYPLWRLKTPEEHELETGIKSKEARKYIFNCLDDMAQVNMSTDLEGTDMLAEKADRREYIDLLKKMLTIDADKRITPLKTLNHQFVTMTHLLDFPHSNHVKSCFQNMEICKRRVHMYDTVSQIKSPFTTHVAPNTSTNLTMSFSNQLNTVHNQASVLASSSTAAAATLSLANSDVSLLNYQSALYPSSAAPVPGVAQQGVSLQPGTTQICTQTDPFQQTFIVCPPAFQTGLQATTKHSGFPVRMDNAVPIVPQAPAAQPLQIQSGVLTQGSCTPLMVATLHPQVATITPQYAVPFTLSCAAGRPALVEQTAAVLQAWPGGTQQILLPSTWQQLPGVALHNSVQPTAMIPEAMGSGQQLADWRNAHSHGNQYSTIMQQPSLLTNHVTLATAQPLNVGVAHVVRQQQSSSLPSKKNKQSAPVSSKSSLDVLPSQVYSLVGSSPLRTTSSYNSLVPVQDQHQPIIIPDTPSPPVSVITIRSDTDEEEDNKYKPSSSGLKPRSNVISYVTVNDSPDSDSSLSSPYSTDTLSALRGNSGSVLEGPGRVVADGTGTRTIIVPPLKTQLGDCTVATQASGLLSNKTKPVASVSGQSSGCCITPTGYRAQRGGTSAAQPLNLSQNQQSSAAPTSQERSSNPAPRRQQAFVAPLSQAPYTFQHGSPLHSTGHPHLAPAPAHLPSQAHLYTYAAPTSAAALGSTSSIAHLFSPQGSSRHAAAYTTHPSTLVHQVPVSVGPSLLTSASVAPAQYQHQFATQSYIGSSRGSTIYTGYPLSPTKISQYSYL

[21] = biological target: Phosphatidylinositol 4-kinase beta (Homo sapiens) (UniProt Q9UBF8); settings: Compound concentration 1000.0 nM
[22] = biological target: Serine/threonine-protein kinase N1 (Homo sapiens) (UniProt Q16512); settings: Compound concentration 1000.0 nM
[23] = biological target: Discoidin domain-containing receptor 2 (Homo sapiens) (UniProt Q16832); settings: Compound concentration 1000.0 nM
[24] = test system: Epidermal growth factor receptor (Homo sapiens), P00533 [UNDEFINED MUTATION]; settings: Compound concentration 1000.0 nM
Epidermal growth factor receptor (Homo sapiens), P00533 [UNDEFINED MUTATION], sequence (P00533 whole entry, looked up, change not shown): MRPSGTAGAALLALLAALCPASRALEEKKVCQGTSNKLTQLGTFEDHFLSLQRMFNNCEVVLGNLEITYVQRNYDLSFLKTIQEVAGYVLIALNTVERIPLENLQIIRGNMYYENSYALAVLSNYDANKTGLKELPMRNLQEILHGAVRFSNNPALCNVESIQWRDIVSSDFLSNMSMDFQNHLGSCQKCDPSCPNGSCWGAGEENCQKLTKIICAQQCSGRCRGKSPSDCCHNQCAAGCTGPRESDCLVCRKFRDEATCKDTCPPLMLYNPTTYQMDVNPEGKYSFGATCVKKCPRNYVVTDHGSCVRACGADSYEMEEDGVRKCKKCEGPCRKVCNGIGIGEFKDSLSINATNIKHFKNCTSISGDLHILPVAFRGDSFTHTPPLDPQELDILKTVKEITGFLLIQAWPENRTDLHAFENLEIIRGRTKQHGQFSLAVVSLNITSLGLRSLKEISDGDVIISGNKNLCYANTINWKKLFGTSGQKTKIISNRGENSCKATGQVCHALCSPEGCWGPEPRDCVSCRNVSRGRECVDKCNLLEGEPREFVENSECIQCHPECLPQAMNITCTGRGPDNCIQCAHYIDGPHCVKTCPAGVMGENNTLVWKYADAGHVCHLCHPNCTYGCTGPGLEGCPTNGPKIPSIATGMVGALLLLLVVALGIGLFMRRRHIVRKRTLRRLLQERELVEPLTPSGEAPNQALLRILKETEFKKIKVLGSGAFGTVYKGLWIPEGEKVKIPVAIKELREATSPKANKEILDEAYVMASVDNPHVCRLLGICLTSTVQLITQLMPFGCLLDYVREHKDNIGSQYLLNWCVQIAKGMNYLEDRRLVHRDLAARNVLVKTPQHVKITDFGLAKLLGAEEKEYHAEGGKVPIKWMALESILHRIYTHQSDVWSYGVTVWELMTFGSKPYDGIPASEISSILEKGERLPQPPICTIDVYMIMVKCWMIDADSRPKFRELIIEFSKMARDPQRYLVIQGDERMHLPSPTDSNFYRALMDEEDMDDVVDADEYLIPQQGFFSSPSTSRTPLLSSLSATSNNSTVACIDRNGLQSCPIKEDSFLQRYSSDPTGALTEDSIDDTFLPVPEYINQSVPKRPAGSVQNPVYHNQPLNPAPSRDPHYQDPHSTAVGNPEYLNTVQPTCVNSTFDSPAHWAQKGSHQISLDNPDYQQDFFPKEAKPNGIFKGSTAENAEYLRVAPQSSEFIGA

[25] = biological target: Testis-specific serine/threonine-protein kinase 1 (Homo sapiens) (UniProt Q9BXA7); settings: Compound concentration 1000.0 nM
[26] = biological target: Serine/threonine-protein kinase DCLK1 (Homo sapiens) (UniProt O15075); settings: Compound concentration 1000.0 nM
[27] = biological target: Phosphatidylinositol 4,5-bisphosphate 3-kinase catalytic subunit delta isoform (Homo sapiens) (UniProt O00329); settings: Compound concentration 1000.0 nM
[28] = test system: ALK tyrosine kinase receptor (Homo sapiens), Q9UM73 [C1156Y]; settings: Compound concentration 1000.0 nM
[29] = biological target: Casein kinase I isoform gamma-1 (Homo sapiens) (UniProt Q9HCP0); settings: Compound concentration 1000.0 nM
[30] = biological target: Serine/threonine-protein kinase Sgk3 (Homo sapiens) (UniProt Q96BR1); settings: Compound concentration 1000.0 nM
[31] = biological target: Glycogen synthase kinase-3 beta (Homo sapiens) (UniProt P49841); settings: Compound concentration 1000.0 nM
Glycogen synthase kinase-3 beta (Homo sapiens), sequence (P49841 whole entry, looked up): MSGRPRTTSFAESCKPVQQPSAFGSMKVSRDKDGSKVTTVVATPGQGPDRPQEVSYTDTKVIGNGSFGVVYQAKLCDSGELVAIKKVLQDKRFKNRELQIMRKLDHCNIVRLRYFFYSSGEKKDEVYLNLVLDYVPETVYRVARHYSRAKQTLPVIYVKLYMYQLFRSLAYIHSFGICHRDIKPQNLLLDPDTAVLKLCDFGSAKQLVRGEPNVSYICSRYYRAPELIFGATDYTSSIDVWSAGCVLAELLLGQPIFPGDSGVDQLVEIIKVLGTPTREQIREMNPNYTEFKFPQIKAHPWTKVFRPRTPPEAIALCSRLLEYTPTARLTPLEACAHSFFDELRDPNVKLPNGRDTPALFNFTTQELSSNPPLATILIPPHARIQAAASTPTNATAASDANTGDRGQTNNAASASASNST

[32] = test system: Proto-oncogene tyrosine-protein kinase receptor Ret (Homo sapiens), P07949 [V804M]; settings: Compound concentration 1000.0 nM
[33] = biological target: Dual serine/threonine and tyrosine protein kinase (Homo sapiens) (UniProt Q6XUX3); settings: Compound concentration 1000.0 nM
[34] = biological target: Serine/threonine-protein kinase 32B (Homo sapiens) (UniProt Q9NY57); settings: Compound concentration 1000.0 nM
[35] = biological target: Alpha-2B adrenergic receptor (Homo sapiens) (UniProt P18089); settings: Compound concentration 10.0 uM
[36] = biological target: Ribosomal protein S6 kinase alpha-5 (Homo sapiens) (UniProt O75582); settings: Compound concentration 1000.0 nM
Ribosomal protein S6 kinase alpha-5 (Homo sapiens), sequence (O75582 whole entry, looked up): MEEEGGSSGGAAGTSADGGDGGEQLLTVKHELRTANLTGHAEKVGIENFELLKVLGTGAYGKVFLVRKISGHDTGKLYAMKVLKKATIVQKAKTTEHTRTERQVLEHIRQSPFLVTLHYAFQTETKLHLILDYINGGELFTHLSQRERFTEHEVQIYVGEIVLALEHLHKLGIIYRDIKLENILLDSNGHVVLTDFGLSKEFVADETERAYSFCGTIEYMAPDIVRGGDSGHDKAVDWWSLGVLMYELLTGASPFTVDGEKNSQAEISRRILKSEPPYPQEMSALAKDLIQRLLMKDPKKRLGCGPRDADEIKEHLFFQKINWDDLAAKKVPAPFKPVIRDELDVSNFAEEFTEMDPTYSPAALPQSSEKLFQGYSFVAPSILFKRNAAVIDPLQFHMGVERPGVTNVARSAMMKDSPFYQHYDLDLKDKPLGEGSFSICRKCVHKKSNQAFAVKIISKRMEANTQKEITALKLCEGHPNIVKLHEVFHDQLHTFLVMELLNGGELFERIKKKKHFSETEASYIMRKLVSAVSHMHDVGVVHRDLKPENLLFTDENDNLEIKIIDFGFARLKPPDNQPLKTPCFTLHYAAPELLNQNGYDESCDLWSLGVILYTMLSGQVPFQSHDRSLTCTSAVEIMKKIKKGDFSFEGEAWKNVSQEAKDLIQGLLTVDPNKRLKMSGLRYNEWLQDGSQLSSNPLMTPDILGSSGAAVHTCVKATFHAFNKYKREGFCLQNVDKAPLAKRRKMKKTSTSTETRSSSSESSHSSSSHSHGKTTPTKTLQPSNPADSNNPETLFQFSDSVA

[37] = biological target: Serine/threonine-protein kinase ICK (Homo sapiens) (UniProt Q9UPZ9); settings: Compound concentration 1000.0 nM
Serine/threonine-protein kinase ICK (Homo sapiens), sequence (Q9UPZ9 whole entry): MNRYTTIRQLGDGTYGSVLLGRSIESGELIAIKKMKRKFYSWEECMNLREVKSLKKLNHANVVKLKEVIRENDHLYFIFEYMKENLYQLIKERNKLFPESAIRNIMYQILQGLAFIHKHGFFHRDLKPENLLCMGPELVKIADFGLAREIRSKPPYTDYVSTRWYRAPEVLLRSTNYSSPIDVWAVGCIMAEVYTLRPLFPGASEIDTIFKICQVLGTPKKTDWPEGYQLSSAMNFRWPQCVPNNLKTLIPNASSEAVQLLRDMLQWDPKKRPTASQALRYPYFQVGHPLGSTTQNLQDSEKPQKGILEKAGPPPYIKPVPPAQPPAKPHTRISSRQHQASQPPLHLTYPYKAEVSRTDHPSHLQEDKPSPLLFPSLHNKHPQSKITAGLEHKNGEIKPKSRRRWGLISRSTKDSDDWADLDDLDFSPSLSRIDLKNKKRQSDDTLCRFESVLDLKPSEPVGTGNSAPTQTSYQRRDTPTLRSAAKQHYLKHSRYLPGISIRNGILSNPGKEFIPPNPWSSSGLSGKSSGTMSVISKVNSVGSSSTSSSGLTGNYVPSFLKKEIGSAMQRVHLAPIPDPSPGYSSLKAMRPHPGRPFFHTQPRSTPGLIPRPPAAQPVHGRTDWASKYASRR

[38] = biological target: Calcium/calmodulin-dependent protein kinase kinase 1 (Homo sapiens) (UniProt Q8N5S9); settings: Compound concentration 1000.0 nM
[39] = biological target: Mitogen-activated protein kinase kinase kinase kinase 5 (Homo sapiens) (UniProt Q9Y4K4); settings: Compound concentration 1000.0 nM
[40] = test system: Tyrosine-protein kinase ABL1 (Homo sapiens), P00519 [Q252H]; settings: Compound concentration 1000.0 nM
[41] = biological target: Phosphorylase b kinase gamma catalytic chain, skeletal muscle/heart isoform (Homo sapiens) (UniProt Q16816); settings: Compound concentration 1000.0 nM
[42] = biological target: Calcium/calmodulin-dependent protein kinase type 1G (Homo sapiens) (UniProt Q96NX5); settings: Compound concentration 1000.0 nM
[43] = biological target: Citron Rho-interacting kinase (Homo sapiens) (UniProt O14578); settings: Compound concentration 1000.0 nM

With CCCCN(CCCC)C(=O)CN1C[C@@H](c2cc(OC)c3c(c2)OCO3)[C@H](C(=O)O)[C@H]1CC(C)(C)CCC [A-545] the residual activity [1] was 87.6%, the residual activity [2] was 100% and the residual activity [3] was 100%. It also gave a residual activity [4] of 85%, a residual activity [5] of 90.6% and a residual activity [6] of 81.5%. It also gave a residual activity [7] of 91%, a residual activity [8] of 100% and a residual activity [9] of 88.1%. It also gave an inhibition [10] of 8.52%, a residual activity [11] of 100% and a residual activity [12] of 76.6%. For the same molecule, the residual activity [13] was 75.2%, the residual activity [14] was 100% and the residual activity [15] was 87.8%. For the same molecule, the residual activity [16] was 75.1%, the residual activity [17] was 89.1% and the residual activity [18] was 100%. It also gave a residual activity [19] of 100%, a residual activity [20] of 77.3% and a residual activity [21] of 97.6%. For the same molecule, the residual activity [22] was 85%, the residual activity [23] was 99.1% and the residual activity [24] was 75.9%. It also gave a residual activity [25] of 100%, a residual activity [26] of 81.5% and a residual activity [27] of 87%. It also gave a residual activity [28] of 95.4%, a residual activity [29] of 100% and a residual activity [30] of 100%. For the same molecule, the residual activity [31] was 100%, the residual activity [32] was 82.4% and the residual activity [33] was 99.7%. It also gave a residual activity [34] of 98.4%, an inhibition [35] of 50% and a residual activity [36] of 98.5%. The residual activity [37] was 83.5%, the residual activity [38] was 100% and the residual activity [39] was 100%. The residual activity [40] was 100%, the residual activity [41] was 97.5% and the residual activity [42] was 100%. The residual activity [43] was 90.5%.

Molecule CCCCN(CCCC)C(=O)CN1C[C@H](c2cc(OC)c3c(c2)OCO3)[C@@H](C(=O)O)[C@@H]1CC(C)(C)CCC [ABT-546] has a residual activity [1] of 50.8%, a residual activity [2] of 58.3% and a residual activity [3] of 79.4%. The residual activity [4] was 100%, the residual activity [5] was 100% and the residual activity [6] was 100%. The residual activity [7] was 70%, the residual activity [8] was 100% and the residual activity [9] was 88.7%. The inhibition [10] was 19.7%, the residual activity [11] was 67.9% and the residual activity [12] was 64.3%. It also gave a residual activity [13] of 100%, a residual activity [14] of 100% and a residual activity [15] of 100%. For the same molecule, the residual activity [16] was 100%, the residual activity [17] was 100% and the residual activity [18] was 100%. The residual activity [19] was 98.5%, the residual activity [20] was 100% and the residual activity [21] was 80.5%. The residual activity [22] was 100%, the residual activity [23] was 76.6% and the residual activity [24] was 79.8%. For the same molecule, the residual activity [25] was 100%, the residual activity [26] was 80.2% and the residual activity [27] was 100%. For the same molecule, the residual activity [28] was 100%, the residual activity [29] was 100% and the residual activity [30] was 75.7%. The residual activity [31] was 100%, the residual activity [32] was 100% and the residual activity [33] was 68.6%. For the same molecule, the residual activity [34] was 81.7%, the inhibition [35] was 9.73% and the residual activity [36] was 100%. The residual activity [37] was 80.2%, the residual activity [38] was 100% and the residual activity [39] was 100%. It also gave a residual activity [40] of 100%, a residual activity [41] of 100% and a residual activity [42] of 100%. For the same molecule, the residual activity [43] was 100%.
